Tests used:
[1] = Antiproliferative activity against human UO31 cells assessed as growth inhibition after 48 hrs by sulforhodamine B assay; type: functional; settings: UO-31, 48 h
[2] = Antiproliferative activity against human OVCAR3 cells assessed as growth inhibition after 48 hrs by sulforhodamine B assay; type: functional; settings: OVCAR-3, 48 h
[3] = test system: NCI-H226; experiment: Antiproliferative activity against human NCI-H226 cells assessed as cell growth at 10^-7 M after 48 hrs by sulforhodamine B assay; type: functional; settings: NCI-H226, 48 h, read-out: Activity
[4] = test system: SK-MEL-28; experiment: Antiproliferative activity against human SK-MEL-28 cells assessed as growth inhibition after 48 hrs by sulforhodamine B assay; type: functional; settings: SK-MEL-28, 48 h
[5] = test system: SK-MEL-2; experiment: Antiproliferative activity against human SK-MEL-2 cells assessed as growth inhibition after 48 hrs by sulforhodamine B assay; type: functional; settings: SK-MEL-2, 48 h
[6] = test system: M14; experiment: Antiproliferative activity against human M14 cells assessed as growth inhibition after 48 hrs by sulforhodamine B assay; type: functional; settings: M14, 48 h
[7] = test system: SK-MEL-2; experiment: Antiproliferative activity against human SK-MEL-2 cells assessed as cell growth at 10^-7 M after 48 hrs by sulforhodamine B assay; type: functional; settings: SK-MEL-2, 48 h, read-out: Activity
[8] = Antiproliferative activity against human OVCAR8 cells assessed as cell growth at 10^-7 M after 48 hrs by sulforhodamine B assay; type: functional; settings: OVCAR-8, 48 h, read-out: Activity
[9] = Antiproliferative activity against human Hs 578T cells assessed as cell growth at 10^-7 M after 48 hrs by sulforhodamine B assay; type: functional; settings: read-out: Activity
[10] = Antiproliferative activity against human SNB75 cells assessed as growth inhibition after 48 hrs by sulforhodamine B assay; type: functional; settings: SNB-75, 48 h
[11] = Antiproliferative activity against human HOP92 cells assessed as growth inhibition after 48 hrs by sulforhodamine B assay; type: functional; settings: HOP-92, 48 h
[12] = Antiproliferative activity against human HOP62 cells assessed as growth inhibition after 48 hrs by sulforhodamine B assay; type: functional; settings: HOP-62, 48 h
[13] = Antiproliferative activity against human DU145 cells assessed as growth inhibition after 48 hrs by sulforhodamine B assay; type: functional; settings: DU-145, 48 h
[14] = test system: MDA-MB-468; experiment: Antiproliferative activity against human MDA-MB-468 cells assessed as growth inhibition after 48 hrs by sulforhodamine B assay; type: functional; settings: MDA-MB-468, 48 h
[15] = target: RAF proto-oncogene serine/threonine-protein kinase (Homo sapiens, UniProt P04049); experiment: Inhibition of human CRAF at 10 uM measured after 40 mins by scintillation counting
[16] = Antiproliferative activity against human HOP92 cells assessed as cell growth at 10^-8 M after 48 hrs by sulforhodamine B assay; type: functional; settings: HOP-92, 48 h, read-out: Activity
[17] = test system: NCI-H322M; experiment: Antiproliferative activity against human NCI-H322M cells assessed as cell growth at 10^-8 M after 48 hrs by sulforhodamine B assay; type: functional; settings: read-out: Activity
[18] = Antiproliferative activity against human SF539 cells assessed as cell growth at 10^-8 M after 48 hrs by sulforhodamine B assay; type: functional; settings: SF-539, 48 h, read-out: Activity
[19] = Antiproliferative activity against human LOXIMVI cells assessed as cell growth at 10^-8 M after 48 hrs by sulforhodamine B assay; type: functional; settings: LOX IMVI, read-out: Activity
[20] = Antiproliferative activity against human HL-60(TB) cells assessed as cell growth at 10^-6 M after 48 hrs by sulforhodamine B assay; type: functional; settings: HL-60, 48 h, read-out: Activity
[21] = test system: NCI-H522; experiment: Antiproliferative activity against human NCI-H522 cells assessed as cell growth at 10^-6 M after 48 hrs by sulforhodamine B assay; type: functional; settings: NCI-H522, 48 h, read-out: Activity
[22] = test system: CCRF-CEM; experiment: Antiproliferative activity against human CCRF-CEM cells assessed as cell growth at 10^-4 M after 48 hrs by sulforhodamine B assay; type: functional; settings: read-out: Activity
[23] = Antiproliferative activity against human MOLT4 cells assessed as cell growth at 10^-4 M after 48 hrs by sulforhodamine B assay; type: functional; settings: MOLT-4, 48 h, read-out: Activity
[24] = Antiproliferative activity against human SNB75 cells assessed as cell growth at 10^-4 M after 48 hrs by sulforhodamine B assay; type: functional; settings: SNB-75, 48 h, read-out: Activity
[25] = Antiproliferative activity against human UACC257 cells assessed as cell growth at 10^-8 M after 48 hrs by sulforhodamine B assay; type: functional; settings: UACC-257, 48 h, read-out: Activity
[26] = Antiproliferative activity against human OVCAR8 cells assessed as cell growth at 10^-8 M after 48 hrs by sulforhodamine B assay; type: functional; settings: OVCAR-8, 48 h, read-out: Activity
[27] = Antiproliferative activity against human RXF393 cells assessed as cell growth at 10^-8 M after 48 hrs by sulforhodamine B assay; type: functional; settings: RXF 393, 48 h, read-out: Activity
[28] = test system: M14; experiment: Antiproliferative activity against human M14 cells assessed as cell growth at 10^-6 M after 48 hrs by sulforhodamine B assay; type: functional; settings: M14, 48 h, read-out: Activity
[29] = test system: SK-MEL-5; experiment: Antiproliferative activity against human SK-MEL-5 cells assessed as cell growth at 10^-6 M after 48 hrs by sulforhodamine B assay; type: functional; settings: SK-MEL-5, 48 h, read-out: Activity
[30] = Antiproliferative activity against human OVCAR3 cells assessed as cell growth at 10^-6 M after 48 hrs by sulforhodamine B assay; type: functional; settings: OVCAR-3, 48 h, read-out: Activity
[31] = Antiproliferative activity against human OVCAR8 cells assessed as cell growth at 10^-6 M after 48 hrs by sulforhodamine B assay; type: functional; settings: OVCAR-8, 48 h, read-out: Activity
[32] = Antiproliferative activity against human OVCAR3 cells assessed as cell growth at 10^-4 M after 48 hrs by sulforhodamine B assay; type: functional; settings: OVCAR-3, 48 h, read-out: Activity
[33] = test system: A498; experiment: Antiproliferative activity against human A498 cells assessed as cell growth at 10^-4 M after 48 hrs by sulforhodamine B assay; type: functional; settings: A498, 48 h, read-out: Activity
[34] = Antiproliferative activity against human TK10 cells assessed as cell growth at 10^-4 M after 48 hrs by sulforhodamine B assay; type: functional; settings: TK-10, 48 h, read-out: Activity
[35] = test system: MCF7; experiment: Antiproliferative activity against human MCF7 cells assessed as cell growth at 10^-4 M after 48 hrs by sulforhodamine B assay; type: functional; settings: MCF7, 48 h, read-out: Activity
[36] = read-out: LC50 (the source's name)

Chain of RAF proto-oncogene serine/threonine-protein kinase (P04049 whole entry): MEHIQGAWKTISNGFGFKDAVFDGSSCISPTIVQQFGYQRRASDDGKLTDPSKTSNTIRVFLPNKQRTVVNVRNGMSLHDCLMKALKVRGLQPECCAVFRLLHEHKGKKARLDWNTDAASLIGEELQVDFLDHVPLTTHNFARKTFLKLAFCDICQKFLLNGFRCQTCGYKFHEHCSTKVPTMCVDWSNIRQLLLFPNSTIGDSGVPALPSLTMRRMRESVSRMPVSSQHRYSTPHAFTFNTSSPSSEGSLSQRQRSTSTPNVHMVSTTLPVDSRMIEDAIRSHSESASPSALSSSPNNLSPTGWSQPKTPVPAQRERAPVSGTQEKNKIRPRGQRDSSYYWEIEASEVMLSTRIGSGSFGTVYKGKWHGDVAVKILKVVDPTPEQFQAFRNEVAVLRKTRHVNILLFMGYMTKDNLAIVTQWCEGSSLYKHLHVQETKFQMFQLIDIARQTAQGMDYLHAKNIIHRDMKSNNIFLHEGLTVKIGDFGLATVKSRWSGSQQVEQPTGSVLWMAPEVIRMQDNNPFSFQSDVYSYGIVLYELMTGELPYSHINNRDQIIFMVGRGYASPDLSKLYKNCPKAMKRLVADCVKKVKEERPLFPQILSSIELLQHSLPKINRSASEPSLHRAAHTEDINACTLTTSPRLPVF

SMILES: CNC(=O)c1cc(Oc2ccc3nc(NC(=O)Nc4ccc(Cl)c(Cl)c4)sc3c2)ccn1
- GI50 [1]: 2.08 µM
- TGI [1]: 3.96 µM
- CC50 [1, 36]: 7.56 µM
- GI50 [2]: 2.3 µM
- LC50 [2]: > 100 µM
- TGI [2]: 5.38 µM
- growth at 0.1 µM [3]: 106%
- GI50 [4]: 1.74 µM
- TGI [4]: 3.56 µM
- CC50 [4, 36]: 7.31 µM
- GI50 [5]: 2.56 µM
- TGI [5]: 5.97 µM
- CC50 [5, 36]: > 100 µM
- GI50 [6]: 2.13 µM
- TGI [6]: 4.74 µM
- CC50 [6, 36]: > 100 µM
- growth at 0.1 µM [7]: 118%
- growth at 0.1 µM [8]: 101%
- growth at 0.1 µM [9]: 108%
- GI50 [10]: 1.73 µM
- TGI [10]: 3.61 µM
- CC50 [10, 36]: 7.54 µM
- GI50 [11]: 2.66 µM
- LC50 [11]: 18.8 µM
- TGI [11]: 5.39 µM
- GI50 [12]: 2.24 µM
- LC50 [12]: 7.15 µM
- TGI [12]: 4 µM
- GI50 [13]: 2.45 µM
- TGI [13]: 6.29 µM
- CC50 [13, 36]: > 100 µM
- GI50 [14]: 1.97 µM
- TGI [14]: 5.09 µM
- CC50 [14, 36]: > 100 µM
- inhibition [15]: 98.6%
- growth at 0.01 µM [16]: 100%
- growth at 0.01 µM [17]: 90%
- growth at 0.01 µM [18]: 92%
- growth at 0.01 µM [19]: 95%
- growth at 1 µM [20]: 105%
- growth at 1 µM [21]: 97%
- growth at 100 µM [22]: 79%
- growth at 100 µM [23]: 78%
- growth at 100 µM [24]: -75%
- growth at 0.01 µM [25]: 92%
- growth at 0.01 µM [26]: 103%
- growth at 0.01 µM [27]: 99%
- growth at 1 µM [28]: 97%
- growth at 1 µM [29]: 94%
- growth at 1 µM [30]: 99%
- growth at 1 µM [31]: 103%
- growth at 100 µM [32]: -24%
- growth at 100 µM [33]: -42%
- growth at 100 µM [34]: -14%
- growth at 100 µM [35]: 7%
